According to US6379649B1, “Imidazo(1,2-a)pyridines as peripheral benzodiazepine receptor binding agents” (Australian Nuclear Science & Technology Organisation, priority 1998, dated 2002):
pIC50: −log10 of the molar value.

Columns and labels:
[1] = target: T1, peripheral benzodiazepine receptor (Rattus norvegicus, UniProt P16257); assay: Pretreatment (blocking) of uptake of radiolabelled compounds in rats; format: in vivo; design: high uptake in the tissues which have known PBR sites; from tissue; host or cells: living rats; organs with PBR sites; settings: pretreatment with unlabelled substance (1 mg/kg)
[2] = target: T1, peripheral benzodiazepine receptor; assay: In vitro binding assay for peripheral benzodiazepine receptors ([^3H]-PK11195, rat kidney membranes); design: diluted kidney membrane preparation; from tissue; host or cells: rat kidney membranes (Sprague Dawley)
Description: In Vitro Binding Assays for Peripheral Benzodiazepine Receptors
Male Sprague Dawley rats are sacrificed by CO2 administration followed by cervical dislocation. Kidneys are removed and placed in 20 volumes of ice-cold buffer ([…] Tris-HCl, pH 7.4) and minced finely with scissors. After homogenising the preparation with a polytron (PCU Kintematica, Bioblock, Switzerland) with one 10-second burst at a setting of 10, the suspension is centrifuged at 49,000 g for 15 minutes at 4° C. The pellets are resuspended in the previous buffer with a dounce (manual homogeniser) to yield an appropriate protein concentration. Protein measurements are made by Lowry's method using bovine serum albumin as standard.
(§1) Non-specific binding is determined by blocking with cold PK11195 (10 μM). Incubation is terminated by rapid filtration through Whatman GF/B glass fiber. Each sample tube and filter is immediately washed with 3 aliquots of 5 mL ice-cold […] Tris/HCl at pH 7.4. Filters are counted with a β-scintillation counter (Packard) to measure the amount of bound radioactivity. Ki and IC50 are calculated by EBDA/Ligand, iterative non-linear least squares curve-fitting programs.

[3] = target: central benzodiazepine receptor; assay: In vitro binding assay for central benzodiazepine receptors ([^3H]-Ro 15-1788, rat cortex membranes); settings: rat cortex membrane / rat brain homogenates, [^3H]-Ro 15-1788 2 nM, 25° C., 45 minutes; read-out: IC50 (nM) CBR
Description: In Vitro Binding Assays for Central Benzodiazepine Receptors
Male Sprague Dawley rats are sacrificed by CO2 administration followed by cervical dislocation. Cortex is removed and placed in 20 volumes of ice-cold buffer ([…] Tris-HCl, pH 7.4) and minced finely with scissors. After homogenising the preparation will a polytron (PCU Kinematica, Bioblock, Switzerland) with one 10-second burst at a setting of 6, the suspension is centrifuged at 20,000 g for 20 minutes at 4° C. The pellets are resuspended in the previous buffer with a dounce (manual homogeniser). After the second centrifugation, the pellet is suspended in a final buffer (50 nM Tris/HCl, 0.32M sucrose, pH 7.4) to yield an appropriate protein concentration. Protein measurements are made by Lowry's method using bovine serum albumin as standard.
as §1, with “Flumazenil (20” for “PK11195 (10”, “programs (G. A. McPherson, J. Pharmacol. Methods 14, 213-228 (1985)).” for “programs.”

Row | Structure (SMILES) | effect of pretreatment on uptake of activity of the radiolabelled compounds in the tissues of interest [1] | melting point [°C] | pIC50 [2] | IC50 [3] [nM]
1 | CCC(C)N(C)C(=O)c1cc2ccccc2c(-c2ccccc2Cl)n1 (stereo not drawn) [PK 11195, 1-(2-chlorophenyl)-N-methyl-N-(1-methylpropyl)-3-isoquinolinecarboxamide] | significantly reduced | – | – | –
2 | CN1C(=O)CN=C(c2ccccc2)c2cc(Cl)ccc21 [Diazepam] | only marginally | – | – | –
3 | CCOC(=O)c1ncn2c1CN(C)C(=O)c1cc(F)ccc1-2 [Flumazenil] | only marginally | – | – | –
4 | CN(C)C(=O)Cc1c(-c2ccc(I)cc2)nc2ccc(Cl)cn12 [Example 2] | – | 216 to 218 | 8.64 | 168
